According to US20210213103A1, “METHODS OF TREATING DRY EYE SYNDROME” (REGENTREE, LLC, priority 2016, published 2021):

Tests used:
subjects with dry eye = assay: Tear film break up time (TFBUT), Example 1 clinical study; assay type: in vivo, human; conditions: for Tear Film Break Up Time, change from baseline (mean): visit 2 (baseline) to visit 5, 0.05% and 0.1% groups pooled; for Tear Film Break Up Time, Mean Difference between Tβ4 and Placebo (Tβ4-Placebo): visit 2 to visit 5
Protocol: As used herein, the terms “tear breakup time” or “TBUT” or “tear film breakup time” or “TFBUT” can refer to a clinical test that measures the interval between the individual's last complete blink and the breakup of the tear film. The test can be used to assess for DES. To measure TBUT, fluorescein is instilled into the patient's tear film and the patient is asked not to blink while the tear film is observed under a broad beam of cobalt blue illumination. The TBUT is recorded as the number of seconds that elapse between the last blink and the appearance of the first dry spot in the tear film.
The presently disclosed subject matter also provides for methods of improving tear film stability. Tear film stability can be evaluated by various assessments in the art, including but not limited to a TFBUT analysis. […] In order to achieve maximum fluorescence, an appropriate waiting period is implemented after instillation before evaluating TFBUT. With the aid of a slit-lamp, the integrity of the tear film can be monitored by noting the time it takes to form […] from the time that the eye is opened. TFBUT can be measured in seconds using a stopwatch and a digital image recording system for one eye followed by the second eye. A negative test result is normal, whereby more than about 10 seconds of TFBUT is recorded.
This study was a multicenter, randomized, double-masked study designed to evaluate the efficacy and safety of 0.05% and 0.1% Tβ4 ophthalmic solution compared to placebo in subjects with dry eye.
The study consisted of two periods: a 7-day run-in period and a 28-day treatment period.
The clinical dosage form and packaging of Tβ4 ophthalmic solution and the placebo ophthalmic solutions were identical sterile, low-density polyethylene unit-dose non-preserved bottles. They were packaged in foil-wrap pouches to prevent light exposure, each containing single-use bottles. Throughout the study, between day 1 and day 29, patients were instructed to instill one drop of study medication in each eye four times daily, once in the morning, noon, afternoon and in the evening before bed. Patients were assigned randomization kit numbers in strict numerical sequence, using a code generated by an independent biostatistician. All investigators, study and site personnel, and patients were masked to the treatment assignments.
Patients were evaluated on day 8 (visit 3), day 15 (visit 4), and day 29 (visit 5) during the dosing period. Exposure to the CAE occurred on days 14 and 28. At each study visit, a panel of dry eye signs and symptoms and safety measures were evaluated (including both before [pre-CAE] and after [post-CAE] exposure).

[1] = injectable solution, 14 consecutive days, four escalating dose levels; cited from earlier work
[2] = higher tear film stability group
[3] = lower tear film stability group

## thymosin beta 4 [Tβ4]
Subjects with dry eye; [2]
  Tear Film Break Up Time, change from baseline (mean): 0.14 s
  Tear Film Break Up Time, Mean Difference between Tβ4 and Placebo (Tβ4-Placebo): 0.09 s
Subjects with dry eye; [3]
  Tear Film Break Up Time, change from baseline (mean): 0.74 s
  Tear Film Break Up Time, Mean Difference between Tβ4 and Placebo (Tβ4-Placebo): 0.20 s
[1]
  safety and tolerability: safe and well-tolerated
